The numbers were not newly measured in PMC9430692, “BRET-Based Self-Cleaving Biosensors for SARS-CoV-2 3CLpro Inhibitor Discovery” (Microbiology Spectrum, 2022), which cites them from elsewhere.

Usually EC50 stands for the concentration giving half of the maximal effect.

For this series, the system named is SARS-CoV-2. The following applies: Vero E6 cells, MOI 0.01; ref [8]; read-out: Reported EC50 against SARS-CoV-2.

Turning to `CC(C)(C)NC(=O)N[C@H](C(=O)N1C[C@H]2[C@@H]([C@H]1C(=O)NC(CC1CCC1)C(=O)C(N)=O)C2(C)C)C(C)(C)C` (stereo partly shown) [Boceprevir], the EC50 is 15.6 µM.
